Where “and” joins values, the source holds several entries; their conditions need not be identical. Equal entries are not always repeated.
Tests used:
[1] = Long-term administration on DIO mice: weight, food intake, tolerance; details: for weight after the drug was administrated for 28 days: individual animals
Method: A solution with a certain concentration was prepared from the crystal form B of the phosphate, and the administration volume was 10 mL/kg.
Experimental animals: C57BL16 mice aged for 5 weeks and weighed for about 13-16 g.
Grouping and administration scheme: the mice were fed adaptively and divided into a normal control group and a model group which were fed with high-fat feed (Research diets, D 12492). When the fasting blood glucose of the mice was greater than or equal to 7 mM, it was considered that the mice had become DIO mice. The DIO mice could be selected for the hypoglycemic effect test. The DIO mice were stratified and randomly grouped according to the blood glucose and the weight. […] The weight and the fasting blood glucose were measured weekly; the food amount, the remaining food amount and the food intake were recorded; the mice were fasted overnight at the end of administration, the blood was sampled, and the free fatty acid (NEFA), total cholesterol (TCHO), triglyceride (TG), insulin and DPPIV activity were measured by using serum.

[2] = Dynamic vapor sorption (DVS); format: physicochemical
Method: Dynamic vapor sorption (DVS): Dynamic vapor sorption (DVS) curves were acquired by DVS Intrinsic of SMS (Surface Measurement Systems). The relative humidity at 25° C. was corrected by deliquescence points of LiCl, Mg(NO3)2 and KCl.
The crystal form B of phosphate prepared in this example was put into a 1.5 mL small bottle and the small bottles was placed under different conditions: 40° C./75% RH or 25° C./60% RH for one week in an open state, or 80° C. for 24 h. The obtained samples were subjected to XRPD test and HPLC test, and the sealed samples placed at 5° C. were used as reference samples (Initial) for HPLC purity test. […] The weight gain at 25° C./80% RH is 6.5% compared to 0% RH.

Compound: C[C@@H]1c2cnc(C(F)(F)F)n2CCN1C(=O)C[C@H](N)Cc1cc(F)c(F)cc1F [DPPIV-P1, (8R)-7-[(3R)-3-amino-1-oxo-4-(2,4,5-trifluorophenyl)butyl]-5,6,7,8-tetrahydro-8-methyl-3-(trifluoromethyl)imidazo[1,5-a]pyrazine]
- Food intake ([1]; 0.3 mg/kg): 2.2 ± 0.3 g/day
- weight ([1]; 0.3 mg/kg daily, D1): 38.9 ± 3.8 g
- weight ([1]; 0.3 mg/kg daily, D7): 37.4 ± 3.4 g
- weight ([1]; 0.3 mg/kg daily, D14): 38.2 ± 4.2 g
- weight ([1]; 0.3 mg/kg daily, D21): 40.2 ± 4.2 g
- weight ([1]; 0.3 mg/kg daily, D28): 39.5 ± 5.0 g
- weight ([1]; 0.3 mg/kg, total data table of metabolic parameters (end of experiment)): 39.5 ± 5.0 g
- Food intake ([1]; 3 mg/kg): 2.2 ± 0.3 g/day
- weight ([1]; 3 mg/kg daily, D1): 41.5 ± 3.5 g
- weight ([1]; 3 mg/kg daily, D7): 40.9 ± 4.2 g
- weight ([1]; 3 mg/kg daily, D14): 43.1 ± 4.9 g
- weight ([1]; 3 mg/kg daily, D21): 44.2 ± 5.1 g
- weight ([1]; 3 mg/kg daily, D28): 45.0 ± 5.4 g
- weight ([1]; 3 mg/kg, total data table of metabolic parameters (end of experiment)): 45.0 ± 5.4 g
- Food intake ([1]; 30 mg/kg): 2.2 ± 0.4 g/day
- weight ([1]; 30 mg/kg daily, D1): 41.5 ± 3.1 g
- weight ([1]; 30 mg/kg daily, D7): 40.5 ± 3.0 g
- weight ([1]; 30 mg/kg daily, D14): 41.2 ± 4.4 g
- weight ([1]; 30 mg/kg daily, D21): 41.3 ± 3.5 g
- weight ([1]; 30 mg/kg daily, D28): 42.9 ± 5.6 g
- weight ([1]; 30 mg/kg, total data table of metabolic parameters (end of experiment)): 42.9 ± 5.6 g
- weight after the drug was administrated for 28 days ([1]; 0.3 mg/kg): 39.9 (2×) and 31.0 and 34.8 and 41.6 and 32.2 and 40.5 and 40.8 and 45.6 and 47.1 and 41.0
- weight after the drug was administrated for 28 days ([1]; 3 mg/kg): 46.8 (2×) and 42.6 and 54.1 and 48.3 and 34.4 and 42.2 and 43.1 and 46.4 and 39.7 and 50.2
- weight after the drug was administrated for 28 days ([1]; 30 mg/kg, in g): 46.6 and 36.5 and 43.6 and 36.8 and 36.7 and 39.3 and 38.7 and 48.2 and 51.8 and 48.6 and 41.0
- weight gain (DVS) ([2]; 25° C./80% RH compared to 0% RH): 6.5%
- crystal form before and after the DVS test (XRPD) ([2]; after DVS test): the crystal form remained unchanged

Source: patent publication US11046701B2, “Salt of cetagliptin, preparation method thereof, pharmaceutical composition, and use thereof” (CGENETECH (SUZHOU, CHINA) CO., LTD., priority 2018, dated 2021)
